“Also recorded” adds a separate entry of the source.
Key:
[1] = system: S1P-mediated cleavage of ATF6; conditions: from references [69], [78]; cited from earlier work
S1P = S1P expression by western blot in cells expressing F508del-CFTR; format: cell-based, human; conditions: 300 μM AEBSF, total cell lysates
Description: (§1) The CFBE41o−cells purchased from Professor D. C.
(§2) Untreated or AEBSF treated cells were rinsed twice with cold PBS. For total cell lysate preparation, cells were lysed in RIPA buffer (25 mM Tris-HCl pH 7.5, 150 mM NaCl, 1% Triton X-100, 1% Na-Deoxycholate, 0.1% SDS, 10 mM iodoacetamide, 100 μM PMSF) supplemented with fresh protease-inhibitor cocktail (Complete tablets—EDTA free, Roche, Basel, Switzerland) added extemporaneously at a final concentration of 40 μl/ml (30 min on ice). Lysates were centrifugated (15 min, 16000 g, 4° C.). For nuclear preparation, cells were washed twice with cold PBS, and lysed with buffer A (10 mM HEPES pH 7.9, 1.5 mM MgCl2, 10 mM KCl, 2 mM EDTA, 0.5 mM DTT, 0.20% NP40 and protease-inhibitor cocktail) during 15 min at 4° C. Lysates were then centrifuged (1,500×g, 2 min, 4° C.) and the supernatants (cytosolic fraction) were removed in a new tube. […] Protein concentrations were determined using Lowry's methodology with the bovine serum albumin used as a standard.
(§3) For each sample equal amount of total or nuclear proteins was loaded on a polyacrylamide gel and resolved by SDS-PAGE (10%). […] Blots were developed by enhanced chemiluminescence kit (ECL Plus, GE Healthcare) and analyzed using Chemi-Smart 5100 ECL imaging system (Vilber Lourmat). The relative intensity of each band was quantified by densitometry using BIO-1D software (Vilber Lourmat). […]

ATF6 = ATF6 expression and activation by western blot (total lysates, nuclear fractions) in cells expressing F508del-CFTR; format: cell-based, human; conditions: 300 μM AEBSF
Description: as §1
Untreated or AEBSF treated cells were rinsed twice with cold PBS. For total cell lysate preparation, cells were lysed in RIPA buffer (25 mM Tris-HCl pH 7.5, 150 mM NaCl, 1% Triton X-100, 1% Na-Deoxycholate, 0.1% SDS, 10 mM iodoacetamide, 100 μM PMSF) supplemented with fresh protease-inhibitor cocktail (Complete tablets—EDTA free, Roche, Basel, Switzerland) added extemporaneously at a final concentration of 40 μl/ml (30 min on ice). Lysates were centrifugated (15 min, 16000 g, 4° C.). For nuclear preparation, cells were washed twice with cold PBS, and lysed with buffer A (10 mM HEPES pH 7.9, 1.5 mM MgCl2, 10 mM KCl, 2 mM EDTA, 0.5 mM DTT, 0.20% NP40 and protease-inhibitor cocktail) during 15 min at 4° C. Lysates were then centrifuged (1,500×g, 2 min, 4° C.) and the supernatants (cytosolic fraction) were removed in a new tube. The pellet was washed twice in buffer B (Buffer A without NP40) and lysed with buffer C (20 mM HEPES pH 7.9, 1.5 mM MgCl2, 450 mM KCl, 2 mM EDTA, 2 mM EGTA, 0.5 mM DTT, 25% Glycerol and protease-inhibitor cocktail) during 1 h vortexing 2200 rpm. Lysates were then centrifuged (14,000×g, 10 min, 4° C.) and supernatant (nuclear fraction) was removed in a new tube. Protein concentrations were determined using Lowry's methodology with the bovine serum albumin used as a standard.
For each sample equal amount of total or nuclear proteins was loaded on a polyacrylamide gel and resolved by SDS-PAGE (10%). Samples were then transferred onto a PVDF membrane (EMD Millipore, Billerica, Mass., United States). After blotting, membranes were blocked with 5% (w/v) non-fat dried skimmed milk in PBS-0.1% Tween20 (PBST). Blots were then probed overnight at 4° C. with the primary antibodies listed hereafter: Rabbit polyclonal anti-ATF6 antibody (#09-069, EMD Millipore), Rabbit polyclonal anti-S1P antibody (H-300) (#SC-20757, SantaCruz Biotechnology), Rabbit polyclonal anti-GRP78 antibody (H-129) (#SC-13968, SantaCruz Biotechnology). Membranes were further incubated 1 h at room temperature with the appropriate horseradish peroxidase (HRP) conjugated secondary antibody diluted in PBST (1/20,000): Goat anti-rabbit (#A0545, Servilab). Blots were developed by enhanced chemiluminescence kit (ECL Plus, GE Healthcare) and analyzed using Chemi-Smart 5100 ECL imaging system (Vilber Lourmat). The relative intensity of each band was quantified by densitometry using BIO-1D software (Vilber Lourmat). Each value was normalized by blue coomassie staining or the G3PDH signal obtained in the same lane on the same blot probed with mouse monoclonal antibody anti-G3PDH (#H86504M, Meridian Life Science®, Inc.) diluted in PBST (1/30,000).

F508del-CFTR [2] = assay: Cell surface detection of CFTR in BHK cells expressing HA-tagged F508del-CFTR; format: cell-based, hamster; conditions: for presence of F508del-CFTR within membranes: after treatment of cells expressing F508del-CFTR
Description: BHK cells stably expressing WT-CFTR or F508del-CFTR were graciously given by Dr. John W. Hanrahan (McGill University). A 3-Haemaglutinin (HA)-epitope tag was inserted in the fourth extracellular loop of CFTR in these cell lines. Cells were cultured in Dulbecco's modified Eagle medium (Lonza, Switzerland) supplemented with 10% fetal bovine serum. Cells were washed three times with cold 1×PBS (Eurobio, France) plus bovine serum albumine (BSA, 0.5%) and incubated 1 h at 4° C. with an anti-HA antibody (BioLegend, USA) diluted (1/250) in 1×PBS plus 0.5% BSA. Cells were washed three times with cold 1×PBS, scraped and centrifugated (300×g, 3 min, 4° C.). Cells pellets were suspended in RIPA buffer for 30 min on ice, centrifuged (16000×g, 15 min, 4° C.) and total protein concentration of supernatant was determined using Lowry's method, using BSA as a standard. Protein G magnetic beads (Thermo Fisher Scientific, USA) were equilibrated with cold RIPA buffer. Lysates were then incubated with the magnetic beads (100 μl of magnetic beads per mg of total protein) at 4° C. during for 2 h. Beads were then rinsed three times in cold RIPA buffer and proteins were eluted with 2× sample buffer containing 2-mercaptoethanol (20 min, 37° C.). […] Membrane was blocked with 5% (w/v) dried skimmed milk in PBS (0.1%) with Tween20, probed overnight at 4° C. with the anti-HA antibody (1/500) in 5% non-fat dried milk in PBST. Membranes were further washed and incubated 1 h at RT with HRP conjugated anti-mouse antibody (1/20000; Santa Cruz Biotechnology, USA). Blots were developed by enhanced chemiluminescence kit (ECL Plus, GE Healthcare, USA) and analyzed using Chemi-Smart 5100 ECL imaging system (Vilber Lourmat, Germany).

BiP = BiP expression by western blot in cells expressing F508del-CFTR (UPR reporter); format: cell-based, human; conditions: 300 μM AEBSF, total cell lysates
Description: as §1, §2, §3

F508del-CFTR [3] = assay: Whole-cell patch-clamp of CFTR Cl- channel activity in CFBE41o-/F508del cells; format: cell-based, human; conditions: for increase of Cl- currents in treated vs untreated F508del-CFTR cells: pA/pF values at +80 mV
Description: as §1
Whole-cell patch-clamp recordings were obtained with the patch clamp system Port-a-Patch® (Nanion Technologies GmbH, Germany) as previously described [74;75]. Untreated or AEBSF treated cells were incubated with the external solution (140 mM NaCl, 2 mM CaCl2, 1 mM MgCl2, 10 mM Hepes, 5 mM D-glucose monohydrate, pH 7.4, 298 mOsmol) before recording. The internal solution used was 50 mM CsCl, 10 mM NaCl, 60 mM Cs-Fluoride, 20 mM EGTA, 10 mM Hepes/CsOH, and 5 mM Mg-ATP (Mg salt); pH 7.2; 285 mOsmol. CFTR activation and CFTR inhibition was done using the CFTR-activator ([…] and […] both from Sigma) and the CFTR-inhibitor ([…], Sigma) solution respectively, that were added to the external solution. Voltage steps (100 ms) from a holding potential of −80 mV, from −80 mV to +80 mV (10 mV increments) were applied. Data were captured using the Patchmaster program (Nanion Technologies GmbH, Germany) and currents normalized by membrane capacitances to remove variability due to differences in the cell sizes. Results were presented as graphic representations of I/V relationship and as bar graphs after statistical analysis of the normalized values, at +80 mV.

[4] = system: cells expressing F508del-CFTR; assay: 2-DE and mass spectrometry of differentially expressed proteins after treatment; format: cell-based, human; conditions: AEBSF treated vs untreated cell lysates, above 2 fold, MS identification
Description: 100 μg of total proteins from untreated or AEBSF treated cells were used for experiments. Each protein sample was first diluted in DeStreak Rehydration Solution (GE Healthcare, Chalfont St Giles, UK) which contains optimized concentrations of urea, thiourea, CHAPS, DeStreak Reagent and appropriate IPG buffer. Passive rehydration of Immobiline DryStrip gels (7 cm, pH 3-10 NL, GE Healthcare) with samples was performed during 8 hours. Once rehydration completed, Immobiline DryStrip gel are transferred in the Manifold on Ettan IPGphor 3 (GE Healthcare) for first dimension isoelectric focusing (IEF). IEF protocol used is divided in five steps: 1—Step 300 V, 200 Vhr; 2—Grad 1000 V, 300 Vhr; 3—Grad 5000 V, 4500 Vhr; 4—Step 5000V, 9000 Vhr; 5—Step 300V, 12-15 h. Second-dimension separation is performed immediately after IEF is completed. Immobiline DryStrip gels are equilibrated (15 min at room temperature) in two SDS equilibration buffers (6 M urea, 75 mM Tris-HCl pH=8.8, 30% Glycerol, 2% SDS, 0.0002% bromophenol blue+DTT or iodoacetamide) before SDS-PAGE. Electrophoresis was performed with lab-cast gels (1 mm, Bis-Tris 10%) in 1× Tris-Glycine-SDS buffer (BioRad, Hercules, Calif., USA) at 120 V for 2 h 30. […] Gel alignment, spot detection and quantification were done using the PDQuest software (PDQuest Basic-8.0.1, BioRad). […]

[5] = system: cells expressing Wt-CFTR and F508del-CFTR; assay: Cell toxicity observed in treated cells; conditions: in the used concentration (300 μM AEBSF; 10 μM PF-429242)
Description: The CFBE41o−cells purchased from Professor D. C. Gruenert (San Francisco, Calif., U.S.A.) were human bronchial epithelial cells endogenously expressing the F508del-CFTR obtained from a CF patient homozygous for the F508del mutation [51;52]. The cells used in experiments were the transduced CFBE41o−/WT also called CFBE41o−/corrected (CFBE41o−/corr) and CFBE41o−/F508del cells, and were cultured as previously described. These cells will be also called cells expressing Wt-CFTR and cells expressing F508del-CFTR in the manuscript. Cell culture media and supplements were purchased from Lonza (Basel, Switzerland) and CliniSciences (Nanterre, France). To inhibit ATF6 activation, cells were incubated with 300 μM of the serine protease inhibitor 4-(2-Aminoethyl) benzenesulfonyl fluoride hydrochloride (AEBSF) purchased from Servilab. In some experiments, ATF6 activation was blocked by the use of 10 μM PF-429242 (4-[(Diethylamino)methyl]-N-[2-(2-methoxyphenyl)ethyl]-N-(3R)-3-pyrrolidinylbenzamide, from Tocris).

Structure (SMILES)	inhibition of ATF6 cleavage upon ER stress [1]	S1P expression over time in treated cells (S1P; 0.5, 1, 2, 4 or 8 hours, CFBE41o-/F508del cells, hydrochloride)	S1P expression, treated vs untreated cells for each time point (S1P; F508del-CFTR cells)	ATF6 activation (cleaved form in nuclear fraction) compared to the zero time point (ATF6; nuclear fractions)	cleaved 50 kDa ATF6 in nuclear fraction, treated vs untreated cells for each time point (ATF6; nuclear fractions)	full length ATF6 expression compared to the zero time point (ATF6; total cell lysates)	full length ATF6 expression, treated vs untreated cells for each time point (ATF6; total cell lysates)	mature form of CFTR (C band, 170 kDa) at the cell surface (F508del-CFTR [2]; BHK cells expressing HA-tagged F508del-CFTR, anti-HA pull-down and immunoblot)	presence of F508del-CFTR within membranes (F508del-CFTR [2])	BiP expression, treated vs untreated cells for each time point (BiP)	BiP expression over time in treated cells (BiP; over time)	increase of Cl- currents in treated vs untreated F508del-CFTR cells (F508del-CFTR [3]; 300 μM AEBSF, 8 hours)	fold increase of the F508del-CFTR's Cl- function (F508del-CFTR [3]; 300 μM AEBSF, 8 hours, vs untreated cells)	mean cell Cl- currents (F508del-CFTR [3]; CFBE41o-/F508del cells, 300 μM AEBSF, 8 hours, at +80 mV, untreated 32.98±14.71, Wt-CFTR 118.8±21.09)	differentially expressed proteins after treatment [4]	cell toxicity [5]	increase of Cl- currents in treated vs untreated F508del-CFTR cells (F508del-CFTR [3]; 10 μM PF-429242, 8 hours)	mean cell Cl- currents (function of F508del-CFTR) (F508del-CFTR [3]; CFBE41o-/F508del cells, 10 μM PF-429242, 8 hours, at +80 mV, untreated 32.98±14.71)
Cl.NCCc1ccc(S(=O)(=O)F)cc1 [AEBSF, 4-(2-Aminoethyl) benzenesulfonyl fluoride hydrochloride]	inhibit the proteolysis of ATF6	significance was only observed at the 2 hours time point; also recorded: no significant variation was observed over time except for the 2 hours time point	no significant difference	significant decreases at the 2 and 4 hours treatment	significant decreased expression of the 50 kDa form of ATF6, from 1 to 8 hours	significant increased expression was observed after 4 and 8 hours of treatment	significant decreases after 0.5, 1 and to 2 hours and a significant increase after 8 hours	only observed after AEBSF treatment	increase the presence of F508del-CFTR within membranes	Significant decreases at the 4 and 8 hours time points	significant decrease of BiP expression was observed after 4 hours of treatment	+153%	2.5 fold	83.42±11.51 pA/pF	HNRNPH1 and HNRH3 were decreased and that PDIA3 (Grp58), HSP7C, GRP75 and HSP71 were increased	No obvious cell toxicity was observed	–	–
CCN(CC)Cc1ccc(C(=O)N(CCc2ccccc2OC)[C@@H]2CCNC2)cc1 [PF-429242, 4-[(Diethylamino)methyl]-N-[2-(2-methoxyphenyl)ethyl]-N-(3R)-3-pyrrolidinylbenzamide]	efficiently blocks the S1P-mediated cleavage of ATF6 upon ER stress	–	–	–	–	–	–	–	increase the presence of F508del-CFTR within membranes	–	–	–	–	–	–	–	+152%	82.67±22.26 pA/pF
